{"source": "patent US20110177038A1", "about": "“Inhibition of Tumor Growth via Peroxiredoxin 3” (THE JOHNS HOPKINS UNIVERSITY, priority 2002, published 2011)", "origin": "cited, not measured here", "system": "MCF7/ADR cells", "conditions": "free radical scavenger", "data": [{"smiles": "CC(=O)C(=O)[O-].[Na+]", "note": "[sodium pyruvate]", "values": [{"measurement": "Inhibition of apoptosis after glucose withdrawal", "result": "sufficient to inhibit apoptosis"}]}]}
